Measurements from patent US12643926B2, “LysM receptor motifs” (Aarhus Universitet, priority 2020, dated 2026).
Entries after “also recorded” stand apart in the source; their conditions may differ. Read-outs that look alike come from different tables or passages of the source.

What was measured:
[1] = molecular target: T1, Medicago truncatula NFP ectodomain, wild type (residues 28-246) (Medicago truncatula, UniProt Q0GXS4); assay: biolayer interferometry (BLI) binding of S. meliloti Nod factor LCO-IV to NFP WT ectodomain; conditions: n = 7
T1 construct: The M. truncatula NFP ectodomain (residues 28-246); AcMNPV gp67 signal peptide, replaces the native signal peptide (N); hexa-histidine (C); made in house; host or cells: Sf9 insect cells (Spodoptera frugiperda), baculovirus
Protocol: (§1) The M. truncatula NFP ectodomain (residues 28-246) was codon-optimized for insect cell expression (Genscript, Piscataway, USA) and cloned into the pOET4 baculovirus transfer vector (Oxford Expression Technologies). The native NFP signal peptide (residues 1-27, predicted by SignalP 4.1) was replaced with the AcMNPV gp67 signal peptide to facilitate secretion and a hexa-histidine tag was added to the C-terminus. Recombinant baculoviruses were produced in […] (Spodoptera frugiperda) using the FlashBac Gold kit (Oxford Expression technologies) according to the manufacturer's instructions with Lipofectin (ThermoFisher Scientific) as a transfection reagent. Protein expression was performed as follows. Suspension-cultured Sf9 cells were maintained with shaking at 299 K in serum-free MAX-XP (BD-Biosciences, discontinued) or HyClone SFX (GE Healthcare) medium supplemented with 1% Pen-Strep (10000 U/ml, Life technologies) and 1% CD lipid concentrate (Gibco). Protein expression was induced by adding recombinant passage 3 virus once the Sf9 cells reached a cell density of 1.0*10^6 cells/ml. After 5-7 days of expression, medium supernatant containing NFP ectodomains was harvested by centrifugation. This was followed by an overnight dialysis step against 50 mM Tris-HCl pH 8, 200 mM NaCl at 277 K. The NFP ectodomain was enriched by two subsequent steps of Ni-IMAC purification (HisTrap excel/HisTrap HP, both GE Healthcare). For crystallography, N-glycans were removed using the endoglycosidase PNGase F (1:15 (w/w), room temperature, overnight). As a final purification step, NFP ectodomains was purified by SEC on a Superdex 200 10/300 or HiLoad Superdex 200 16/600 (both GE Healthcare) in phosphate buffered saline at pH 7.2 supplemented to a total of 500 mM NaCl (for binding assays) or 50 mM Tris-HCl, 200 mM NaCl (for crystallography). NFP ectodomain eluted as a single, homogeneous peak corresponding to a monomer.
(§2) The binding assay using NFP wild type (WT) was replicated seven times, while the binding assay using the NFP mutant NFP L147D L154D was replicated four times.
Binding of NFP WT and NFP L147D/L154D mutant to S. meliloti Nod factor LCO-IV was measured on an Octet RED 96 system (Pall ForteBio). […] Equilibrium dissociation constants derived from the steady-state were determined by applying a non-linear regression (one site, specific binding) to the response at equilibrium plotted against the protein concentration. Kinetic parameters were determined by non-linear regression (association followed by dissociation) on the subtracted data. […]

[2] = molecular target: T2, Medicago truncatula NFP ectodomain (residues 28-246) double mutant L147D L154D (Medicago truncatula, UniProt Q0GXS4, L147D/L154D); assay: biolayer interferometry (BLI) binding of S. meliloti Nod factor LCO-IV to NFP L147D L154D ectodomain; conditions: double mutant vs WT
T2 construct: The M. truncatula NFP ectodomain (residues 28-246); AcMNPV gp67 signal peptide, replaces the native signal peptide (N); hexa-histidine (C); made in house; host or cells: Sf9 insect cells (Spodoptera frugiperda), baculovirus
T2 sequence (Q0GXS4 28-246 L147D/L154D): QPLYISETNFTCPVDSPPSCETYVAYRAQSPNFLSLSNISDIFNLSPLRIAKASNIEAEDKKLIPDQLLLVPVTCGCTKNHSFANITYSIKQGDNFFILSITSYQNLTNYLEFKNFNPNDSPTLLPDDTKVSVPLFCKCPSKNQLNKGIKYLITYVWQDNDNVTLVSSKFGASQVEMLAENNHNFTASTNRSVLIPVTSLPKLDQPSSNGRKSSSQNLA
Protocol: as §1
The M. truncatula NFP leucine residues L147 and L154 were replaced with aspartate residues. Aspartate is similar in size to leucine, but negatively charged where leucine is hydrophobic. Point mutants of NFP were engineered using site-directed mutagenesis. In particular, a double-mutated NFP was engineered where the leucine residues L147 and L154 were replaced with aspartate residues to create the mutant NFP L147D L154D. Point mutated versions of the NFP ectodomain were expressed and purified as described above.
as §2
(§3) Binding of NFP WT and NFP L147D/L154D mutant to S. meliloti Nod factor LCO-IV was measured on an Octet RED 96 system (Pall ForteBio). S. meliloti Nod factor LCO-IV consists of a tetrameric/pentameric N-acetylglucosamine backbone that is O-sulfated on the reducing terminal residue, O-acetylated on the non-reducing terminal residue, and mono-N-acylated by unsaturated C16 acyl groups. Biotinylated ligand conjugates were immobilized on streptavidin biosensors (kinetic quality, Pall ForteBio) at a concentration of 125-250 nM for 5 minutes. The binding assays were replicated 7 times for the NFP WT, and 4 times for the NFP L147D/L154D mutant. Data analysis was performed in GraphPad Prism 6 software (GraphPad Software, Inc.). Equilibrium dissociation constants derived from the steady-state were determined by applying a non-linear regression (one site, specific binding) to the response at equilibrium plotted against the protein concentration. Kinetic parameters were determined by non-linear regression (association followed by dissociation) on the subtracted data. Table 9 summarizes the kinetic parameters of FIGS. 18C-18D, with goodness of fit described by the global fit R^2 on the mean value of each point, and number of replicates performed using independent protein preparations (n) indicated.

[3] = Biolayer interferometry of A. thaliana CERK1 binding to chitin fragments; conditions: BLI; CO5 and CO8; result in words
Protocol: as §3, with “Table 9 summarizes the kinetic parameters of FIGS. 18C-18D, with goodness of fit described by the global fit R^2 on the mean value of each point, and number of replicates performed using independent protein preparations (n) indicated.” left out
Binding of A. thaliana CERK1 (AtCERK1) to chitopentaose (CO5) and chitooctaose (CO8) was measured in the same way.

[4] = system: M. truncatula nfp mutants; assay: Complementation assay of M. truncatula nfp mutants, inoculation with S. meliloti strain 2011; assay type: in vivo, Medicago truncatula; conditions: nfp mutant roots; 6-7 weeks after inoculation with S. meliloti strain 2011
Excerpt: Construct assembly, plant growth conditions, hairy root transformations, nodulation and ROS assays were generally conducted as described in Bozsoki, et al. 2017 (Bozsoki, Z. et al. Proc. Natl. Acad. Sci. 2017 114: E8118-E8127). The tested transgenes were the mutated LysM receptors described above.

[5] = system: L. japonicus nfr1-1 loss-of-function mutant; assay: Nodulation assay: complementation of L. japonicus nfr1-1 hairy roots after M. loti R7A DsRed inoculation; assay type: in vivo, Lotus japonicus; conditions: Nfr1 promoter, five weeks post inoculation
Protocol: A. rhizogenes carrying the expression constructs of interest were grown for two days on solid medium. The cells of one plate were resuspended in 2 ml YMB media, and this process was repeated for each construct. A 1 ml syringe with a needle (Sterican Ø0.40×20 mm) was then used to transform the plants, whereby the needle was used to puncture the hypocotyl and a droplet with the bacterial suspension was placed on the wound. Petri dishes containing the transformed roots were sealed and left in the dark for two days and then moved to 21° C. under 16 hour light/8 hour dark conditions. After three weeks, plants with transformed roots were moved to Magenta boxes (Sigma-Aldrich) filled with a 4:1 mixture of lightweight expanded clay aggregate (LECA, 2-4 mm; Saint-Gobain Weber A/S) and vermiculite (size M; Damolin A/S) supplemented with 80 ml nitrogen-free ¼× B&D nutrient solution. All plants were grown at 21° C. under 16 hour light/8 hour dark conditions.
Chimeric receptors under the control of the Nfr1 promoter were tested for their ability to complement a L. japonicus nfr1-1 loss-of-function mutant that is unable to develop root nodules (Radutoiu, S. et al. Nature 2003 425). […] At five weeks post inoculation, nodules were counted and images were acquired with a Leica FluoStereo M165FC microscope equipped with the Leica DFC310 FX camera. […]

Molecule: CCCCCC/C=C\CCCCC/C=C/C(=O)N[C@H]1[C@H](O[C@H]2[C@H](O)[C@@H](NC(C)=O)[C@H](O[C@H]3[C@H](O)[C@@H](NC(C)=O)[C@H](O[C@H]4[C@H](O)[C@@H](NC(C)=O)C(O)O[C@@H]4COS(=O)(=O)O)O[C@@H]3CO)O[C@@H]2CO)O[C@H](COC(C)=O)[C@@H](O)[C@@H]1O (stereo partly shown) [S. meliloti Nod factor LCO-IV]
- kon ([1]; Table 8, read-out: A (converted)): 0.958 M⁻¹ s⁻¹
- koff ([1]; Table 8, read-out: D (converted)): 2.48e-05 s⁻¹
- koff ([1]; Table 9, BLI, read-out: koff): 0.00064 s⁻¹
- kon ([1]; Table 9, BLI, read-out: kon): 50.3 M⁻¹ s⁻¹
- affinity versus NFP WT (Table 8 data) [2]: approximately two times lower affinity
- association (Kon) versus NFP WT (Table 8 data) [2]: almost unaffected
- association rate (kon), fold faster than WT (Table 9 data) [2]: 4.5 fold
- dissociation (Koff), times faster than NFP WT (Table 8 data) [2]: approximately 15 times
- dissociation rate (koff), fold increase over WT (Table 9 data) [2]: 59 fold
- lower affinity compared to WT NFP ectodomain (Table 9 data) [2]: 13 fold

B1: A. thaliana CERK1: A. thaliana LysM chitin receptor CERK1 (protein, UniProt A8R7E6 24-617, looked up)
Chitin elicitor receptor …: KCRTSCPLALASYYLENGTTLSVINQNLNSSIAPYDQINFDPILRYNSNIKDKDRIQMGSRVLVPFPCECQPGDFLGHNFSYSVRQEDTYERVAISNYANLTTMESLQARNPFPATNIPLSATLNVLVNCSCGDESVSKDFGLFVTYPLRPEDSLSSIARSSGVSADILQRYNPGVNFNSGNGIVYVPGRDPNGAFPPFKSSKQDGVGAGVIAGIVIGVIVALLLILFIVYYAYRKNKSKGDSFSSSIPLSTKADHASSTSLQSGGLGGAGVSPGIAAISVDKSVEFSLEELAKATDNFNLSFKIGQGGFGAVYYAELRGEKAAIKKMDMEASKQFLAELKVLTRVHHVNLVRLIGYCVEGSLFLVYEYVENGNLGQHLHGSGREPLPWTKRVQIALDSARGLEYIHEHTVPVYVHRDIKSANILIDQKFRAKVADFGLTKLTEVGGSATRGAMGTFGYMAPETVYGEVSAKVDVYAFGVVLYELISAKGAVVKMTEAVGEFRGLVGVFEESFKETDKEEALRKIIDPRLGDSYPFDSVYKMAELGKACTQENAQLRPSMRYIVVALSTLFSSTGNWDVGNFQNEDLVSLMSGR
- binding kinetics to chitin fragments [3]: fast association and dissociation rates

B2: wild type M. truncatula NFP gene: wild type M. truncatula NFP transgene used to transform nfp mutant roots (protein, UniProt Q0GXS4 1-595, looked up)
chain: MSAFFLPSSSHALFLVLMLFFLTNISAQPLYISETNFTCPVDSPPSCETYVAYRAQSPNFLSLSNISDIFNLSPLRIAKASNIEAEDKKLIPDQLLLVPVTCGCTKNHSFANITYSIKQGDNFFILSITSYQNLTNYLEFKNFNPNLSPTLLPLDTKVSVPLFCKCPSKNQLNKGIKYLITYVWQDNDNVTLVSSKFGASQVEMLAENNHNFTASTNRSVLIPVTSLPKLDQPSSNGRKSSSQNLALIIGISLGSAFFILVLTLSLVYVYCLKMKRLNRSTSSSETADKLLSGVSGYVSKPTMYEIDAIMEGTTNLSDNCKIGESVYKANIDGRVLAVKKIKKDASEELKILQKVNHGNLVKLMGVSSDNDGNCFLVYEYAENGSLEEWLFSESSKTSNSVVSLTWSQRITIAMDVAIGLQYMHEHTYPRIIHRDITTSNILLGSNFKAKIANFGMARTSTNSMMPKIDVFAFGVVLIELLTGKKAMTTKENGEVVILWKDFWKIFDLEGNREERLRKWMDPKLESFYPIDNALSLASLAVNCTADKSLSRPTIAEIVLCLSLLNQPSSEPMLERSLTSGLDAEATHVVTSVIAR
modifications: full-length
notes: wild type M. truncatula NFP transgene used to transform nfp mutant roots
- average nodules per plant [4]: 10 nodules per plant

B3: construct 41: Nfr1 promoter; LYK3 (protein, UniProt Q6UD73 1-620, looked up)
chain: MNLKNGLLLFILFLDCVFFKVESKCVKGCDVALASYYIIPSIQLRNISNFMQSKIVLTNSFDVIMSYNRDVVFDKSGLISYTRINVPFPCECIGGEFLGHVFEYTTKEGDDYDLIANTYYASLTTVELLKKFNSYDPNHIPVKAKINVTVICSCGNSQISKDYGLFVTYPLRSDDTLAKIATKAGLDEGLIQNFNQDANFSIGSGIVFIPGRDQNGHFFPLYSRTGIAKGSAVGIAMAGIFGLLLFVIYIYAKYFQKKEEEKTKLPQTSRAFSTQDASGSAEYETSGSSGHATGSAAGLTGIMVAKSTEFTYQELAKATNNFSLDNKIGQGGFGAVYYAELRGEKTAIKKMDVQASSEFLCELKVLTHVHHLNLVRLIGYCVEGSLFLVYEHIDNGNLGQYLHGIGTEPLPWSSRVQIALDSARGLEYIHEHTVPVYIHRDVKSANILIDKNLRGKVADFGLTKLIEVGNSTLHTRLVGTFGYMPPEYAQYGDVSPKIDVYAFGVVLYELITAKNAVLKTGESVAESKGLVQLFEEALHRMDPLEGLRKLVDPRLKENYPIDSVLKMAQLGRACTRDNPLLRPSMRSIVVALMTLSSPTEDCDDDSSYENQSLINLLSTR
modifications: full-length expressed from Nfr1 promoter
notes: Nfr1 promoter; LYK3
- nodule formation (complementation of nfr1) [5]: absence of nodulation; also recorded: signaling incompetent
